# Measured values reported in PMC8399196, “Synthesis, Characterization, and Anticancer Activity of Benzothiazole Aniline Derivatives and Their Platinum (II) Complexes as New Chemotherapy Agents” (Pharmaceuticals, 2021).
# Legend:
# A549 cells = experiment: CCK-8 cell viability assay, A549; format: cell-based; settings: A549 human lung cancer cells, CCK-8, 24 h, mean ± SEM, n = 3
# Method: (§1) Human colorectal adenocarcinoma cells (HT-29, ATCC® HTB-38), adenocarcinomic human alveolar basal epithelial cells (A549, ATCC® CCL-185), and prostate cancer (PC-3, ATCC® CRL-1435) were cultured in the growth medium, containing Roswell Park Memorial Institute Medium (RPMI1640) WelGENE, Daegu, Korea supplemented with 10% (v/v) fetal bovine serum (FBS, Gibco, Grand Island, NY, USA) and 1% antibiotics-antimycotics (Gibco). Human breast adenocarcinoma cells (MCF-7, ATCC® HTB-22™), hepatocellular carcinoma (HepG2, ATCC® HB-8065™), Rattus brain glioma (C6, ATCC ® CRL-2303™), and human renal carcinoma (Caki-2, ATCC® HTB-47™) cells were cultured in Dulbecco’s modified Eagle’s medium (DMEM, WelGENE, Daegu, Korea) supplemented with 10% (v/v) FBS (Gibco) and 1% antibiotics-antimycotics (Gibco). Mouse brain neural (NE-4C, ATCC® CRL-2925™) and human cervix adenocarcinoma cells (HeLa, ATCC® CCL-2™) were cultured in Eagle’s minimum essential medium (EMEM, ATCC® 30-2003™) supplemented with 10% FBS (Gibco) and 1% antibiotics-antimycotics (Gibco). Mouse liver normal cells (AML12, ATCC® CRL-2254™) were cultured in DMEM/F-12 (WelGENE) supplemented with 10% FBS (Gibco), 1 × ITS (10 μg/mL insulin, 5.5 μg/mL transferrin, 6.7 ng/mL selenium, Gibco), […] 1% antibiotics-antimycotics (Gibco). Human breast epithelial cells (MCF 10A, ATCC® CRL-10317™) were cultured in DMEM/F-12 (WelGENE) supplemented with 5% horse serum (Gibco), 20 ng/mL epidermal growth factor (EGF, Peprotech Inc., Rocky Hill, NJ, USA), […] (Sigma-Aldrich, St. Louis, MO, USA), 100 ng/mL colera toxin (Sigma-Aldrich), 10 μg/mL insulin (Sigma-Aldrich) and 1% antibiotics- (Gibco). Human colon normal epithelial cells (FHC, ATCC® CRL-18317™) were cultured in DMEM/F-12 (WelGENE) supplemented with 10% FBS (Gibco), 10 ng/mL cholera toxin (Sigma-Aldrich), 20 ng/mL EGF (Peprotech Inc.), 100 μg/mL hydrocortisone (Sigma-Aldrich), 1 × ITS (10 μg/mL insulin, 5.5 μg/mL transferrin, 6.7 ng/mL selenium, Gibco) and 1% antibiotics-antimycotics (with 100 units penicillin, 100 μg streptomycin and 250 ng amphotericin B per mL, Gibco). Cells were incubated in a humidified 5% CO2 atmosphere at 37 °C.
# (§2) To evaluate cytotoxicity, cells were seeded in a 96-well plate (FHC, 0.5 × 10^4 cells/well; Caki-2 and MCF 10A, 1 × 10^4 cells/well; AML12, 1.2 × 10^4 cells/well; HeLa, HEK-293, A549, and PC-3, 1.5 × 10^4 cells/well; HT-29, MCF-7, C6, HepG2, and NE-4C, 2 × 10^4 cells/well). […] In addition, cell counting kit-8 (CCK-8, Dojindo Laboratories, Kumamoto, Japan) solution was added to each well, and the plate was incubated for 2 h. The absorbance was then measured at 450 nm using a microplate reader (SpectraMax i3, Molecular Devices, San Jose, CA, USA). The IC50 and logIC50 values were calculated in GraphPad Prism (GraphPad Prism Software Inc. Version 5.02, San Diego, CA, USA). All experiments were performed, independently, three times. The graph of logIC50 values represents the average value.
# AML12 cells = experiment: CCK-8 cell viability assay, AML12 normal cells; format: cell-based; settings: AML12 normal mouse liver hepatocyte cells, CCK-8, 24 h, mean ± SEM, n = 3
# Method: as §1, §2
# PC-3 cells = experiment: CCK-8 cell viability assay, PC-3; format: cell-based; settings: PC-3 human prostate cancer cells, CCK-8, 24 h, mean ± SEM, n = 3
# Method: as §1, §2
# Caki-2 cells = experiment: CCK-8 cell viability assay, Caki-2; format: cell-based; settings: Caki-2 human renal cancer cells, CCK-8, 24 h, mean ± SEM, n = 3
# Method: as §1, §2
# HT-29 cells = experiment: CCK-8 cell viability assay, HT-29; format: cell-based; settings: HT-29 human colon cancer cells, CCK-8, 24 h, mean ± SEM, n = 3
# Method: as §1, §2
# FHC cells = experiment: CCK-8 cell viability assay, FHC normal cells; format: cell-based; settings: FHC normal human colon epithelial cells, CCK-8, 24 h, mean ± SEM, n = 3
# Method: as §1, §2
# HEK-293 cells = experiment: CCK-8 cell viability assay, HEK-293 normal cells; format: cell-based; settings: HEK-293 human embryonic kidney cells, CCK-8, 24 h, mean ± SEM, n = 3
# Method: as §2
# HepG2 cells = experiment: CCK-8 cell viability assay, HepG2; format: cell-based; settings: HepG2 human hepatic carcinoma cells, CCK-8, 24 h, mean ± SEM, n = 3
# Method: as §1, §2
# MCF-7 cells = experiment: CCK-8 cell viability assay, MCF-7; format: cell-based; settings: MCF-7 human breast cancer cells, CCK-8, 24 h, mean ± SEM, n = 3
# Method: as §1, §2
# HeLa cells = experiment: CCK-8 cell viability assay, HeLa; format: cell-based; settings: HeLa human cervical cancer cells, CCK-8, 24 h, mean ± SEM, n = 3
# Method: as §1, §2
# MCF-10A cells = experiment: CCK-8 cell viability assay, MCF-10A normal cells; format: cell-based; settings: MCF-10A normal human breast epithelial cells, CCK-8, 24 h, mean ± SEM, n = 3
# Method: as §1, §2
# C6 cells = experiment: CCK-8 cell viability assay, C6; format: cell-based, Rattus; settings: C6 brain glioma cells, CCK-8, 24 h, mean ± SEM, n = 3
# Method: as §1, §2
# NE-4C cells = experiment: CCK-8 cell viability assay, NE-4C normal cells; format: cell-based; settings: NE-4C mouse brain neural stem cells, CCK-8, 24 h, mean ± SEM, n = 3
# Method: as §1, §2
smiles,measurement,setting,value
"O=C(Nc1ccc(-c2nc3ccccc3s2)cc1)C(C/N=C/c1ccccc1O)/N=C/c1ccccc1O (stereo not shown) [Compound L2, N-(4-Benzothiazol-2-yl-phenyl)-2,3-bis-[(2-hydroxy-benzylidene)amino] propionamide]",IC50,A549 cells,182.4 ± 0.8 µM
same,IC50,AML12 cells,> 500 µM
same,IC50,PC-3 cells,116 ± 5 µM
same,IC50,Caki-2 cells,159 ± 4.3 µM
same,IC50,HT-29 cells,135 ± 4.4 µM
same,IC50,FHC cells,189 ± 10.3 µM
same,IC50,HEK-293 cells; HEK293,139 ± 20.1 µM
same,IC50,HepG2 cells,14.2 ± 7 µM
same,IC50,MCF-7 cells; MCF7,98.1 ± 7.9 µM
same,IC50,HeLa cells,47 ± 6 µM
same,IC50,MCF-10A cells,79.3 ± 25.4 µM
same,IC50,C6 cells; Rattus norvegicus,143 ± 32.7 µM
same,IC50,NE-4C cells; Neural stem cell,28.2 ± 0.1 µM
O=C(Nc1ccc(-c2nc3ccccc3s2)cc1)C1C[N+]2=Cc3ccccc3[O][Pt-2]23[O]c2ccccc2C=[N+]13 (stereo not shown) [Compound L2Pt],IC50,A549 cells,> 500 µM
same,IC50,AML12 cells,> 500 µM
same,IC50,PC-3 cells,> 500 µM
same,IC50,Caki-2 cells,> 500 µM
same,IC50,HT-29 cells,173 ± 3.2 µM
same,IC50,FHC cells,> 500 µM
same,IC50,HEK-293 cells,212 ± 14.9 µM
same,IC50,HepG2 cells,31.6 ± 3.6 µM
same,IC50,MCF-7 cells,> 500 µM
same,IC50,HeLa cells,221 ± 15.8 µM
same,IC50,MCF-10A cells,> 500 µM
same,IC50,C6 cells,> 500 µM
same,IC50,NE-4C cells,47 ± 4.1 µM
"O=C(Nc1ccc(-c2nc3ccccc3s2)cc1)C1CNC(c2ccccn2)=N1 (stereo not shown) [Compound L3, 2-Pyridin-2-yl-4,5-dihydro-1H-imidazole-4-carboxylic acid (4-benzothiazol-2-yl-phenyl)amide]",IC50,A549 cells,> 500 µM
same,IC50,AML12 cells,> 500 µM
same,IC50,PC-3 cells,130 ± 34.7 µM
same,IC50,Caki-2 cells,> 500 µM
same,IC50,HT-29 cells,70.5 ± 0.2 µM
same,IC50,FHC cells,> 500 µM
same,IC50,HEK-293 cells; HEK293,> 500 µM
same,IC50,HepG2 cells,> 500 µM
same,IC50,MCF-7 cells; MCF7,190 ± 16.5 µM
same,IC50,HeLa cells,98.9 ± 3.5 µM
same,IC50,MCF-10A cells,> 500 µM
same,IC50,C6 cells; Rattus norvegicus,142 ± 15.3 µM
same,IC50,NE-4C cells; Neural stem cell,22.4 ± 2.4 µM
O=C(Nc1ccc(-c2nc3ccccc3s2)cc1)C1CNC2=[N+]1[Pt-2]([Cl])([Cl])[n+]1ccccc12 (stereo not shown) [Compound L3Pt],IC50,A549 cells,> 500 µM
same,IC50,AML12 cells,> 500 µM
same,IC50,PC-3 cells,> 500 µM
same,IC50,Caki-2 cells,> 500 µM
same,IC50,HT-29 cells,> 500 µM
same,IC50,FHC cells,> 500 µM
same,IC50,HEK-293 cells,206 ± 7.4 µM
same,IC50,HepG2 cells,> 500 µM
same,IC50,MCF-7 cells,> 500 µM
same,IC50,HeLa cells,> 500 µM
same,IC50,MCF-10A cells,> 500 µM
same,IC50,C6 cells,> 500 µM
same,IC50,NE-4C cells,32.4 ± 6 µM
